This is an account of results in patent publication US8168651B2, “Protein kinase modulators” (Cylene Pharmaceuticals, Inc., priority 2008, dated 2012).

The target in this assay is recombinant human PIM1 (Homo sapiens (Human), UniProt P11309). In words: PIM-1 kinase activity in cell-free in vitro assay. The class given is biochemical. Conditions: for inhibition at 0.5 µM: 500 nM compound, read-out: PIM-1: % inh 500 nM.

The structures appear in SMILES notation. pIC50: −log10 of the molar value. Read-outs that look alike come from different tables or passages of the source. A value given as a limit tells only on which side of the number the result lay.

Sequence of recombinant human PIM1 (P11309 whole entry): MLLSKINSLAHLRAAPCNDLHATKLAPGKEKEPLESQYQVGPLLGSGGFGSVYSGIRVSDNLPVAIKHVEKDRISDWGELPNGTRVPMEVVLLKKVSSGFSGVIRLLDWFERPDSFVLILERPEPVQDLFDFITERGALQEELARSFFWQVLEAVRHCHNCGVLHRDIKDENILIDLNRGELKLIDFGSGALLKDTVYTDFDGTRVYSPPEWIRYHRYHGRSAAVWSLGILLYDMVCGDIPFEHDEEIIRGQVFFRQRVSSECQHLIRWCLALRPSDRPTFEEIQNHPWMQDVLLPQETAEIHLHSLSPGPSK

`O=C(O)c1cccc2c1nc(Nc1cccc(Cl)c1)c1ccncc12` [drawing 2271]: the negative-log IC50 (pIC50) (Table 45) is less than 5.96. With `COC(=O)c1cccc2c1nc(Nc1ccccc1)c1ccncc12` [drawing 2272], the negative logarithm of the IC50 (pIC50) (Table 45) was less than 5.96. Turning to `c1cc(-c2nnc[nH]2)c2nc(N3CCOCC3)c3ccncc3c2c1`, the pIC50 was 5.40. For `c1ccc(Nc2nc3cc(-c4nnn[nH]4)ccc3c3cnccc23)cc1`, the inhibition at 0.5 µM (cell-free) is 33.1%.

With `CCCNC(=O)c1cccc(Nc2nc3cc(-c4nnn[nH]4)ccc3c3sccc23)c1`, the inhibition at 0.5 µM (cell-free) stood at 47.7%.

For `O=C(NC1CC1)c1cccc2c1nc(Nc1cccc(Cl)c1)c1ccncc12`, the pIC50 (Table 45) is less than 5.96. Take `CC(=O)Nc1cccc(Nc2nc3cc(-c4nnn[nH]4)ccc3c3sccc23)c1`: under “cell-free”, the inhibition at 0.5 µM was 27.1%.

As for `O=C(O)c1cccc(Nc2nc3cc(-c4nnn[nH]4)ccc3c3sccc23)c1`, for the setting “cell-free”, the inhibition at 0.5 µM came out at 58% and the pIC50 was 6.19. Consider `CN(C)CCNC(=O)c1cccc2c1nc(Nc1cccc(Cl)c1)c1ccncc12`, for which the pIC50 (Table 45) was less than 5.96. Turning to `Cc1cccc(Nc2nc3cc(-c4nnn[nH]4)ccc3c3sccc23)c1`, under “cell-free”, the inhibition at 0.5 µM stood at 58% and the pIC50 is 6.41. For `O=C(NCc1ccccc1)c1cccc2c1nc(Nc1cccc(Cl)c1)c1ccncc12`, the pIC50 (Table 45) is less than 5.96. With `Clc1cccc(Nc2nc3c(-c4nnco4)cccc3c3cnccc23)c1`, the negative-log IC50 (pIC50) (Table 45) is less than 5.96. Consider `O=C(O)c1cccc2c1nc(Nc1cccc(Cl)c1)c1cnccc12`, for which the pIC50 (Table 45) was less than 5.96. As to `O=C(Nc1ccccc1)c1cccc2c1nc(Nc1cccc(Cl)c1)c1ccncc12`, the pIC50 (Table 45) was less than 5.96.

With `O=C(O)CCNc1ncc2c(n1)c(Nc1cccc(Cl)c1)nc1cc(C(=O)O)ccc12`, the inhibition at 0.5 µM (cell-free assay) was 24.2%. `N#Cc1cccc2c1nc(Nc1cccc(Cl)c1)c1ccncc12`: for the setting “Table 45”, the pIC50 is less than 5.96. Consider `C#Cc1cccc(Nc2nc3cc(C(=O)O)ccc3c3sccc23)c1`, for which the inhibition at 0.5 µM (cell-free) was 26%. Regarding `O=C(O)c1cccc2c1nc(Nc1ccccc1)c1ccncc12` [drawing 2273], for the setting “Table 45”, the negative logarithm of the IC50 (pIC50) was less than 5.96. In the case of `CNC(=O)c1cccc2c1nc(Nc1cccc(Cl)c1)c1ccncc12` [drawing 2277], the negative-log IC50 (pIC50) (Table 45) is less than 5.96. With `COC(=O)c1cccc2c1nc(Nc1cccc(Cl)c1)c1ccncc12`, the pIC50 (Table 45) is less than 5.96.

`O=C(O)c1ccc2c(c1)nc(Nc1cccc(Cl)c1)c1nc(O)ncc12`: the inhibition at 0.5 µM (cell-free assay) amounted to 3.53%. For the molecule `CONC(=O)c1cccc2c1nc(Nc1cccc(Cl)c1)c1ccncc12`, the pIC50 (Table 45) was less than 5.96. For the molecule `C#Cc1cccc(Nc2nc3cc(C(=O)OC)ccc3c3cnc(NOC)nc23)c1`, where the note is “cell-free assay”, the inhibition at 0.5 µM came out at 0.371%. On to `O=C(O)c1ccc2c(c1)nc(N1CCN(c3cnccn3)CC1)c1ccncc12`, for which, for the setting “cell-free assay”, the inhibition at 0.5 µM is -2.36%. Regarding `COCCNC(=O)c1cccc2c1nc(Nc1cccc(Cl)c1)c1ccncc12`, the pIC50 (Table 45) was less than 5.96.

Turning to `COCCOc1cccc(Nc2nc3c(C(N)=O)cccc3c3cnccc23)c1`, the negative-log IC50 (pIC50) (Table 45) was more than 6.30. For `CN(C)CCNc1nc2cc(-c3nnn[nH]3)ccc2c2cnccc12`, where the note is “cell-free”, the inhibition at 0.5 µM is 38.1%. As for `OCc1cccc2c1nc(Nc1cccc(Cl)c1)c1ccncc12`, the negative logarithm of the IC50 (pIC50) (Table 45) was more than 6.00.

Consider `CC(C)Nc1ncc2c(n1)c(Nc1cccc(Cl)c1)nc1cc(C(=O)O)ccc12`, for which the inhibition at 0.5 µM (cell-free assay) was -0.505%. Take `NCc1ccc(Nc2nc3c(-c4nnc[nH]4)cccc3c3cnccc23)c(Cl)c1`: the pIC50 is more than 7.00. In the case of `FC(F)(F)Oc1cccc(Nc2nc3cc(-c4nnn[nH]4)ccc3c3sccc23)c1`, for the setting “cell-free”, the inhibition at 0.5 µM was 30.7%. Take `O=C(c1cccc2c1nc(Nc1cccc(Cl)c1)c1ccncc12)N1CCOCC1`: the pIC50 (Table 45) is less than 5.96. On the same count and under the same terms, in the case of `CN(C)C(=O)c1cccc2c1nc(Nc1cccc(Cl)c1)c1ccncc12` it was less than 5.96. In the case of `CN1CCN(c2ccc(Nc3nc4c(-c5nnc[nH]5)cccc4c4cnccc34)cc2)CC1`, the negative logarithm of the IC50 (pIC50) is more than 6.30. With `CCOc1ncc2c(n1)c(Nc1cccc(C(F)(F)F)c1)nc1cc(C(=O)O)ccc12`, the inhibition at 0.5 µM (cell-free assay) is -5%.
